This is an account of results in patent US20260028365A1 (BIOGEN MA INC., priority 2022, published 2026).

Like-named read-outs stand apart in the source and are kept apart here.

The target in experiment [1] is JH2 domain of human Tyk2 (Homo sapiens (Human), UniProt P29597). As to the kind of experiment: JH2 Biochemical Assay (TR-FRET probe displacement). It counts as binding.
Experiment [2] addresses Tyk2 (Homo sapiens (Human), UniProt P29597). As to the kind of experiment: pSTAT4 Cell Assay (MSD, NK92 cells). The format is cell-based.
Setting [3] is: JH2 domain of human Tyk2, TR-FRET probe displacement.
[4] abbreviates: TR-FRET probe displacement, JH2 domain.
The mark [5] stands for this setting: TR-FRET probe displacement, JH2 domain of human Tyk2.

Sequence of JH2 domain of human Tyk2 (P29597 575-876): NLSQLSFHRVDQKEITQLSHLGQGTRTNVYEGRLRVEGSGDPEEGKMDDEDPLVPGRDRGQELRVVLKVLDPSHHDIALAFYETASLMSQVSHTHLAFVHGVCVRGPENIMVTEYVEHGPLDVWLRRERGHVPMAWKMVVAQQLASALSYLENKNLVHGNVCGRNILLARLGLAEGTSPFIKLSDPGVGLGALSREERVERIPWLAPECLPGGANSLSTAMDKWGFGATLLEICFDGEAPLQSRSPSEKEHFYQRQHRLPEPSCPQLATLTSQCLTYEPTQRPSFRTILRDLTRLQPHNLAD
Sequence of Tyk2 (P29597 whole entry, the tested form may be a part): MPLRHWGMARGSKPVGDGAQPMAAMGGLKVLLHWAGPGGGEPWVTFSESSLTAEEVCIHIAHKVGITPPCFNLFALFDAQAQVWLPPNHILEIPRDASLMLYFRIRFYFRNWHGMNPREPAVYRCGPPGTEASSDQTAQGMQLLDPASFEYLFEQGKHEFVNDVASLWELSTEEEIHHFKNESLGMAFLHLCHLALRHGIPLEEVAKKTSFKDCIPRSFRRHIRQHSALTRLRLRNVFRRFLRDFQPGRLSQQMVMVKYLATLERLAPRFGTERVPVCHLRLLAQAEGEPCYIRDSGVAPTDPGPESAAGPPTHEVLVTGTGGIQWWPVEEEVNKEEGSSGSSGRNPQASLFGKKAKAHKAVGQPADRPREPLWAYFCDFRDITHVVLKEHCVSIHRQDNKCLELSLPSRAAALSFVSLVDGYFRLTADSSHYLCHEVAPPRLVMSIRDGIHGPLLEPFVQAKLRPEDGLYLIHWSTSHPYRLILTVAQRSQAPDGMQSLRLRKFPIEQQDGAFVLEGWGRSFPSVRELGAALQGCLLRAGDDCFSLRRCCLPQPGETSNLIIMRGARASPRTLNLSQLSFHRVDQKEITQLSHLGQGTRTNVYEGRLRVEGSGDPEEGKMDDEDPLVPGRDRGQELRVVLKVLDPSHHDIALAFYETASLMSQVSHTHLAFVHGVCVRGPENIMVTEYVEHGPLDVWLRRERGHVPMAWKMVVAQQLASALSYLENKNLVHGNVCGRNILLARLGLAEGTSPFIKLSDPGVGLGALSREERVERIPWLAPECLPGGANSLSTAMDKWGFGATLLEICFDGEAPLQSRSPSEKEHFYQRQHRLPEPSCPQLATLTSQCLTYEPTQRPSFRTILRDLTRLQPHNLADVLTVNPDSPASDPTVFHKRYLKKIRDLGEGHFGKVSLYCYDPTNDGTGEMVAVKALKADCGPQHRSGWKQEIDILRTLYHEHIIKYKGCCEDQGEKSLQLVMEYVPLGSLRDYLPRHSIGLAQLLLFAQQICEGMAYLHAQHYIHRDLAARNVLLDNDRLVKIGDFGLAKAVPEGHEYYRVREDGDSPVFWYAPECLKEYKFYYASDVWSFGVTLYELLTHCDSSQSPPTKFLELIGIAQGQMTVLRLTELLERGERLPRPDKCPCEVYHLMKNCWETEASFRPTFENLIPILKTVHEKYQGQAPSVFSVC

Consider `COc1cc(-c2cnc(NC(C)=O)cc2Nc2ccnc(C(C)(F)F)n2)nc(OC)n1` [Example 687, N-(4-((2-(1,1-difluoroethyl)pyrimidin-4-yl)amino)-5-(2,6-dimethoxypyrimidin-4-yl)pyridin-2-yl)acetamide], for which the IC50 (commonly the point on the concentration scale where inhibition reaches its midpoint) was at most 10 nM in experiment [1] (setting [3]) and 10 to 100 nM in experiment [2] (MSD).

Take `CC(=O)Nc1cc(Nc2cc(OC3CC3)nc(C(C)(F)F)n2)c(-c2cnccn2)cn1` [Example 824, N-(4-((6-cyclopropoxy-2-(1,1-difluoroethyl)pyrimidin-4-yl)amino)-5-(pyrazin-2-yl)pyridin-2-yl)acetamide]: the values for the IC50 in experiment [1] (setting [4]) and in experiment [2] were at most 10 nM and 10 to 100 nM, respectively.

Regarding `CC(=O)Nc1cc(Nc2ccnc(C(C)(F)F)n2)c(-c2ccc(N(C)C)nn2)cn1` [Example 841, N-(4-((2-(1,1-difluoroethyl)pyrimidin-4-yl)amino)-5-(6-(dimethylamino)pyridazin-3-yl)pyridin-2-yl)acetamide], the IC50 in experiment [1] (setting [4]) and in experiment [2] was at most 10 nM each time.

Regarding `CC(=O)Nc1cc(Nc2cc(C)nc(C(C)(F)F)n2)c(OC[C@]23CO[C@](CF)(C2)C3)cn1` [Example 421, N-(4-((2-(1,1-difluoroethyl)-6-methylpyrimidin-4-yl)amino)-5-(((1r,4s)-1-(fluoromethyl)-2-oxabicyclo[2.1.1]hexan-4-yl)methoxy)pyridin-2-yl)acetamide], the IC50 is at most 10 nM in experiment [1] (setting [3]) and 10 to 100 nM in experiment [2] (MSD).

Regarding `CC(=O)Nc1cc(Nc2ccnc(C(C)(F)F)n2)c(-c2ccc(C(C)(C)O)cn2)cn1` [Example 852, N-(4′-((2-(1,1-difluoroethyl)pyrimidin-4-yl)amino)-5-(2-hydroxypropan-2-yl)-[2,3′-bipyridin]-6′-yl)acetamide], the IC50 in experiment [1] (setting [4]) and in experiment [2] was at most 10 nM each time.

Take `CC(=O)Nc1cc(Nc2cc(C)nc(C(C)(F)F)n2)c(OCc2cnccc2C)cn1` [Example 470, N-(4-((2-(1,1-difluoroethyl)-6-methylpyrimidin-4-yl)amino)-5-((4-methylpyridin-3-yl)methoxy)pyridin-2-yl)acetamide]: the results for the IC50 in experiment [1] (setting [3]) and in experiment [2] (MSD) were at most 10 nM and 100 to 1000 nM, respectively.

Consider `COCc1ccc(-c2cnc(NC(C)=O)cc2Nc2ccnc(C3CCOC3)n2)nc1` (stereo not shown) [Example 567, N-(5-(methoxymethyl)-4′-((2-(tetrahydrofuran-3-yl)pyrimidin-4-yl)amino)-[2,3′-bipyridin]-6′-yl)acetamide], for which the IC50 was at most 10 nM in experiment [1] (setting [3]) and 10 to 100 nM in experiment [2] (MSD).

Consider `CC(=O)Nc1cc(Nc2cc(C)nc(C(C)(F)F)n2)c(-c2cc(NC(C)C)cnn2)cn1` [Example 254, N-(4-((2-(1,1-difluoroethyl)-6-methylpyrimidin-4-yl)amino)-5-(5-(isopropylamino)pyridazin-3-yl)pyridin-2-yl)acetamide], for which the IC50 in experiment [1] (setting [5]) and in experiment [2] (MSD) was at most 10 nM throughout.

With `COc1cnc(NC(C)=O)cc1Nc1cc(-c2cc(F)c3nc(C)cn3c2)nc(C(C)(F)F)n1` [Example 398, N-(4-((2-(1,1-difluoroethyl)-6-(8-fluoro-2-methylimidazo[1,2-a]pyridin-6-yl)pyrimidin-4-yl)amino)-5-methoxypyridin-2-yl)acetamide], the IC50 was at most 10 nM in experiment [1] (setting [3]) and 10 to 100 nM in experiment [2] (MSD).

As to `CC(=O)Nc1cc(Nc2ccnc(C(C)(F)F)n2)c(-c2cc(OC(F)F)ncn2)cn1` [Example 767, N-(4-((2-(1,1-difluoroethyl)pyrimidin-4-yl)amino)-5-(6-(difluoromethoxy)pyrimidin-4-yl)pyridin-2-yl)acetamide], the IC50 is at most 10 nM in experiment [1] (setting [4]) and 10 to 100 nM in experiment [2].

`COCCn1nccc1-c1cnc(NC(C)=O)cc1Nc1cc(C)nc(C(C)(F)F)n1` [Example 258, N-(4-((2-(1,1-difluoroethyl)-6-methylpyrimidin-4-yl)amino)-5-(1-(2-methoxyethyl)-1H-pyrazol-5-yl)pyridin-2-yl)acetamide]: the IC50 in experiment [1] (setting [5]) and in experiment [2] (MSD) was 100 to 1000 nM in each case.

With `CC(=O)Nc1cc(Nc2cc(C)nc(C(C)(F)F)n2)c(OCc2conc2C)cn1` [Example 335, N-(4-((2-(1,1-difluoroethyl)-6-methylpyrimidin-4-yl)amino)-5-((3-methylisoxazol-4-yl)methoxy)pyridin-2-yl)acetamide], the IC50 in experiment [1] (setting [5]) was at most 10 nM; in experiment [2] (MSD), 100 to 1000 nM.

In the case of `CC(=O)Nc1cc(Nc2cc(C)nc([C@]34CO[C@](CF)(C3)C4)n2)c(-c2ccn(C)n2)cn1` [Example 560, N-(4-((2-((1s,4s)-1-(fluoromethyl)-2-oxabicyclo[2.1.1]hexan-4-yl)-6-methylpyrimidin-4-yl)amino)-5-(1-methyl-1H-pyrazol-3-yl)pyridin-2-yl)acetamide], the IC50 in experiment [1] (setting [3]) was 10 to 100 nM; in experiment [2] (MSD), at least 1000 nM.

On to `CC(=O)Nc1cc(Nc2ccnc(C(C)(F)F)n2)c(-c2ccnc(C)n2)cn1` [Example 173, N-(4-((2-(1,1-difluoroethyl)pyrimidin-4-yl)amino)-5-(2-methylpyrimidin-4-yl)pyridin-2-yl)acetamide], for which the IC50 in experiment [1] (setting [5]) and in experiment [2] (MSD) was at most 10 nM each time.

As to `COc1ncc(-c2cnc(NC(C)=O)cc2Nc2ccnc(C(C)(F)F)n2)nc1OC` [Example 686, N-(4-((2-(1,1-difluoroethyl)pyrimidin-4-yl)amino)-5-(5,6-dimethoxypyrazin-2-yl)pyridin-2-yl)acetamide], the IC50 in experiment [1] (setting [3]) was 10 to 100 nM; in experiment [2] (MSD) it was at least 1000 nM.

With `CC(=O)Nc1cc(Nc2cc(-c3cnn(C(C)C)c3)nc(C(C)(F)F)n2)c(O[C@H]2C[C@@H](F)C2)cn1` [Example 414, N-(4-((2-(1,1-difluoroethyl)-6-(1-isopropyl-1H-pyrazol-4-yl)pyrimidin-4-yl)amino)-5-((1s,3s)-3-fluorocyclobutoxy)pyridin-2-yl)acetamide], the IC50 in experiment [1] (setting [3]) and in experiment [2] (MSD) was at most 10 nM in each case.

As to `CC(=O)Nc1cc(Nc2ccnc(C(C)(F)F)n2)c(-c2ccc(N3C[C@@H]4C[C@H]3CO4)nn2)cn1` [Example 876, N-(5-(6-((1S,4S)-2-oxa-5-azabicyclo[2.2.1]heptan-5-yl)pyridazin-3-yl)-4-((2-(1,1-difluoroethyl)pyrimidin-4-yl)amino)pyridin-2-yl)acetamide], the IC50 in experiment [1] (setting [4]) and in experiment [2] was at most 10 nM throughout.

Consider `COCc1ncc(-c2cnc(NC(C)=O)cc2Nc2cc(C)nc(C(C)(F)F)n2)s1` [Example 232, N-(4-((2-(1,1-difluoroethyl)-6-methylpyrimidin-4-yl)amino)-5-(2-(methoxymethyl)thiazol-5-yl)pyridin-2-yl)acetamide], for which the IC50 in experiment [1] (setting [5]) and in experiment [2] (MSD) was at most 10 nM each time.

On to `CCc1cc(Nc2cc(NC(C)=O)ncc2-c2cnc(OC)cn2)nc(C(C)(F)F)n1` [Example 829, N-(4-((2-(1,1-difluoroethyl)-6-ethylpyrimidin-4-yl)amino)-5-(5-methoxypyrazin-2-yl)pyridin-2-yl)acetamide], for which the results for the IC50 in experiment [1] (setting [4]) and in experiment [2] were at most 10 nM and 10 to 100 nM, respectively.

Turning to `CCc1cc(Nc2cc(NC(C)=O)ncc2-c2ccc(COC)cn2)nc(C2CCOC2)n1` (stereo not shown) [Example 569, N-(4′-((6-ethyl-2-(tetrahydrofuran-3-yl)pyrimidin-4-yl)amino)-5-(methoxymethyl)-[2,3′-bipyridin]-6′-yl)acetamide], the IC50 in experiment [1] (setting [3]) and in experiment [2] (MSD) was at most 10 nM throughout.
